Experimental data: patent publication US5929082A, “Potassium ion channel blockers” (priority 1995, dated 1999)

Assays:
[1] = Kinetic/metabolite studies: HPLC analysis of plasma after oral administration; assay type: in vivo, Sprague-Dawley rats; conditions: for Compound in plasma / metabolites observed in plasma: after oral administration, HPLC; for metabolites observed in plasma: in words; for time within which the compound is metabolised after administration: oral administration
Method: Plasma samples were collected in order to test the correlation of plasma drug (or metabolite) concentration with hypoglycaemic activity, and to determine whether compounds of the invention were converted in vivo into active metabolites. The plasma levels of test compounds or metabolites also give an indication of rate of metabolism and kinetics of drug action.
Blood samples collected from rats treated as above and collected at the same intervals were analysed using an ICI LC1150 HPLC system and a LC1210 UV detector at a wavelength of 227 nm. The HPLC system used a Merck LiChroCART 125-4 LiChrosphere 100 RP-18 HPLC and LiChrosphere 100 RP-18 guard columns. The mobile phase consisted of 70% acetonitrile and a 30% aqueous sodium phosphate buffer at pH 7.45 and was prepared using standard HPLC grade reagents and distilled water. To improve the resolution of peaks and separation of the compounds a gradient method was established where changes in the concentration of the required buffers and solvents, and the time at which these changes occur is outlined in Table 7. The volumes are expressed as percentages of the total flow rate, with the flow rate remaining constant at […].
The data were acquired using the WinChrom Data Management system and were calibrated using stock solutions of the test compounds and Glibenclamide as an internal standard dissolved in 100% methanol
Plasma (250 μL) collected from the rats were extracted into methanol (700 μL) and 50 μL of Glibenclamide (25 μg/ml). The mixture was then agitated with a vortex mixer for 15 sec and centrifuged for 10 min. The clear supernatant was then carefully aspirated for HPLC analysis.
The results are outlined in Table 8 and show retention times (minutes) for the compounds and their metabolites as analysed by HPLC after oral administration in Sprague-Dawley rats. […] Glibenclamide is shown for comparison only, none of the metabolites observed with the test compounds correspond to metabolites of Glibenclamide.

[2] = Hypoglycaemic activity: change in blood glucose after oral gavage; assay type: in vivo, Sprague Dawley rats; conditions: 1.6 mg/kg oral gavage, normal fed male rats
Method: The biological activity of representative compounds of the invention was evaluated by means of several different tests. The activity of compounds of this invention as hypoglycaemic agents was measured and compared with the activity of the known compound of Example 1, using methods described in the literature. Thus normal, fed male Sprague Dawley rats weighing between 275 and 375 g were studied for changes in blood sugar levels and alterations to mean arterial blood pressure following administration of representative compounds of the invention suspended in a 5% solution of gum acacia by oral gavage at a dose of 1.6 mg/kg. The concentration of each compound was 4 mg in 10 ml, so that each rat received 1.1-1.5 ml to obtain the desired dose on a body weight basis. The blood sugar levels were recorded for each rat immediately prior to administration, and at 1, 2, and 3 hr following administration of the test compounds. Blood glucose levels were determined on blood samples taken from the tail, and analysed on an Ames blood glucometer, model 5626, and Ames, 2627 blood glucose strips (number 2). […] It is apparent that generally the heterocyclic sulphonylthioureas have greater activity than the sulphonylureas. Without wishing to be bound by any proposed mechanism for the observed effect, we believe that this may be associated with differences in lipid permeability.

[3] = test system: isolated guinea pig atria; assay: Cardiac effects on isolated atrial preparations; set-up: species or system English short-haired guinea pigs; conditions: bath concentration 8×10^-6 M, 37° C., maximum responses
Method: Preliminary investigations were performed on isolated atrial preparations, and the results obtained using representative compounds of the invention compared to those obtained using the known compound of Example 1 and using Glibenclamide. English short-haired guinea pigs weighing between 200 and 300 g were killed by cervical dislocation. The whole heart was quickly removed by dissection and immersed in a Krebs-Henseleit solution, which had been aerated with carbogen (95% oxygen and 5% carbon dioxide). The atria were then separated by dissection in Krebs-Henseleit solution, whilst being aerated with carbogen.
The atria were then immersed in a 10 ml organ bath containing Krebs-Henseleit solution, maintained at 37° C. for the duration of the experiment by the circulation of water through the water jackets of organ baths by a temperature controlled water pump (Braun Thermomix, Germany), and aerated with carbogen. […] Changes in tension were measured by isometric force transducers and were recorded on a four channel Grass 7P Polygraph (Grass Instruments, Quincy, Mass., USA) which was calibrated daily such that the atria functioned with a resting tension of 1 g. The rate of beating of the atria was measured by the tachograph.
The activity of each test compound was assessed and compared to that of glibenclamide. […]

[4] = test system: MCF-7 human mammary carcinoma cells; assay: Cell proliferation of MCF-7 tumour cells; assay type: cell-based; conditions: 100 μM compound
Method: The ability of a representative compound of the invention to inhibit proliferation of a tumour cell line was examined. MCF-7 human mammary carcinoma cells (Woodfork et al, 1995) were grown in 25 cm^2 Corning flasks in a 5% CO2 water jacket incubator. The medium used for the culture was RPMI 1640 (ICN) and was supplemented with 10% foetal Bovine serum (Cytosystems).
Cells and medium were examined daily to check for growth and infection. The medium was changed every second day. When cells reached 70-80% confluence, the cells were trypsinized with 0.05% trypsin (1:250, "DIFCO") and 0.02% EDTA.
The flasks were firstly washed with a phosphate buffer to remove residual RPMI 1640 medium, then covered with 2 mL of the trypsin solution and left in the incubator for 3-5 minutes. The cells were then transferred to a conical tube containing 2 mL of medium and 10% foetal bovine serum. The cells were centrifuged at 1000 rpm for 3 minutes and the supernatant removed 5 ml of the medium was then added to the pellet of cells and resuspended with a 2 ml pipette.
Approximately 10 μL of medium containing the cells was placed in a Neubauer haemocytometer, and the cells were counted in the 4×1 mm^2 grid per chamber. Cells were then diluted to contain 60×10^4 cells to be added to "Corning" 24 well plates (16 mm diameter). Wells respectively containing the control group and 100 μM compound 1-24 were established, and 3 wells/group/day were used to perform the cell growth study.
Each well contained 500 μL of medium or of compound 1-24. Plates were incubated for 24 hours before counting. The medium was aspirated with different pipette tips for the different study groups 100 μL of 0.02% EDTA solution was added to each well and incubated for 5 minutes. 200 μL of trypsin-EDTA was then added, and the cells incubated for a further 5 minutes, aspirated, and placed in 0.5 mL Eppendorf tubes before counting in a haemocytometer.

[5] = test system: MCF-7 mammary carcinoma cells; assay: Thymidine uptake ([methyl-3H] thymidine incorporation into DNA); assay type: cell-based, human; conditions: 100 μM (printed 100 μH / 100 mM), compared to control group; Glibenclamide n=3, Compound 1-24 n=4
Method: Incorporation of [methyl-3H] thymidine into DNA was measured as described by Murphy and Lazarus (1983), using MCF-7 mammary carcinoma cells treated with compound 1-24 (100 μH) and a control group. The growth medium from cells cultured as described in Example 24 was aspirated from the wells, and 1 mL of fresh growth medium containing 1 μCi [3H]-thymidine (Amersham) was added to each well After 4 hours incubation, the medium was aspirated and the monolayers were washed three times with ice cold phosphate buffered saline (ICN). This was followed by three washes with 10% (v/v) ice cold trichloroacetic acid, each of 5 minutes duration. After another three washes with absolute ethanol at room temperature of 5 minutes duration, the monolayer was dried at room temperature for 10 minutes. The monolayer was […] after incubation for 12 hours with 0.5 N NaOH and 1% Triton-X 100 (Sigma). An aliquot of the cell lysate was added to 10 ml of Ultima Gold (Packard) and counted using a liquid scintillation counter (Packard model 19006A).

[6] = Cohen, 1986; cited from earlier work

CCOc1cccc(NC(=O)NS(=O)(=O)c2ccc(C)cc2)n1 [Compound 1-4, N-[(4-Methylphenyl)sulphonyl]-N'-(6-ethoxypyrid-2-yl)urea]
Compound in plasma [1]: yes
metabolites observed in plasma [1]: no metabolites were observed in the 4 hour period

Cc1ccc(S(=O)(=O)NC(=S)Nc2cccc(Br)n2)cc1 [Compound 1-21, N-[(4-Methylphenyl)sulphonyl]-N'-(6-bromopyrid-2-yl)thiourea]
Change in Blood Glucose, 0 hours [2]: 0.0 mmol/L
Change in Blood Glucose, 1 Hour [2]: -0.9 mmol/L
Change in Blood Glucose, 2 Hours [2]: -2.1 mmol/L
Change in Blood Glucose, 3 Hours [2]: -0.7 mmol/L

CCOc1cccc(NC(=S)NS(=O)(=O)c2ccc(C)cc2)n1 [Compound 1-24]
Change in Blood Glucose, 0 hours [2]: 0.0 mmol/L
Change in Blood Glucose, 1 Hour [2]: 0.5 mmol/L
Change in Blood Glucose, 2 Hours [2]: -2.2 mmol/L
Change in Blood Glucose, 3 Hours [2]: -1.8 mmol/L
inotropic activity [3]: particularly marked inotropic activity
Compound in plasma [1]: no
metabolites observed in plasma [1]: numerous metabolites in the plasma
time within which the compound is metabolised after administration [1]: ≤ 2 h
doubling rate of control group greater than that of cells exposed to compound [4]: approximately 25%
Rate of cell growth: mean cell number, Day 0 ([4]; day 0, n=1 in triplicate): 60,000
Rate of cell growth: mean cell number, Day 1 ([4]; day 1, control 58,000): 74,000
Rate of cell growth: mean cell number, Day 2 ([4]; day 2, control 110,000): 93,000
Rate of cell growth: mean cell number, Day 3 ([4]; day 3, control 188,000): 143,000
Rate of cell growth: mean cell number, Day 6 ([4]; day 6, control 355,000): 230,000
effect on MCF-7 tumour cell proliferation ([4]; in words): reduces MCF-7 tumour cell proliferation
inhibition of thymidine uptake [5]: significant inhibition

CCOc1cc(NC(=S)NS(=O)(=O)c2ccc(C)cc2)ccn1 [Compound 3-15, N-[(4-Methylphenyl)sulphonyl]-N'-(2-ethoxypyrid-4-yl)thiourea]
Compound in plasma [1]: no
metabolites observed in plasma [1]: numerous metabolites in the plasma
time within which the compound is metabolised after administration [1]: ≤ 2 h

Cc1ccc(S(=O)(=O)NC(=S)Nc2ccncc2)cc1 [Compound 3-23, N-[(4-Methylphenyl)sulphonyl]-N'-(4-pyridyl)thiourea]
Change in Blood Glucose, 0 hours [2]: 0.0 mmol/L
Change in Blood Glucose, 1 Hour [2]: -1.0 mmol/L
Change in Blood Glucose, 2 Hours [2]: -1.4 mmol/L
Change in Blood Glucose, 3 Hours [2]: -2.1 mmol/L
inotropic activity [3]: particularly marked inotropic activity

Cc1ccc(S(=O)(=O)NC(=S)Nc2nc(C)cc(C)n2)cc1 [Compound 4-36, N-[(4-Methylphenyl)sulphonyl]-N'-(4,6-dimethylypyrimid-2-yl)thiourea]
Change in Blood Glucose, 0 hours [2]: 0.0 mmol/L
Change in Blood Glucose, 1 Hour [2]: -1.1 mmol/L
Change in Blood Glucose, 2 Hours [2]: -1.6 mmol/L
Change in Blood Glucose, 3 Hours [2]: -1.3 mmol/L

Cc1ccc(S(=O)(=O)NC(=O)Nc2nc(C)cc(C)n2)cc1 [Compound of Example 1, reference compound]
Change in Blood Glucose, 0 hours [2]: 0.0 mmol/L
Change in Blood Glucose, 1 Hour [2]: -0.8 mmol/L
Change in Blood Glucose, 2 Hours [2]: -2.1 mmol/L
Change in Blood Glucose, 3 Hours [2]: -0.8 mmol/L

CC(N/C(=N\C#N)Nc1ccncc1)C(C)(C)C (stereo not drawn) [pinacidil]
vasodilator activity [6]: vasodilator activity
